# According to US20220354870A1, “READY-TO-USE BUPIVISONE PLUS LIQUID FORMULATION” (LEITERS, Inc., priority 2021, published 2022):
# Entries after “also recorded” stand apart in the source; their conditions may differ. Counter-ions that a name gives are not always drawn.
# Experiments:
# Format in all cases: physicochemical
# [1] = Stability testing of syringed formulation with methylparaban (Example 2); conditions: stability study
# Protocol: (§1) The samples were produced using an approved batch record and shipped to contract laboratories for stability testing. The samples were stored according to ICH Q1A (R2) as follows: • Long term: Refrigerated (5° C. ±3° C.) in Horizontal Orientation, Protected from Light • Accelerated Condition: Room Temperature (25° C. ±2° C. and 40% RH ±5% RH) Horizontal Orientation, Protected from Light
# (§2) The method development procedure for the strength and potency aligned with the defined criteria in USP <1225> for a stability indicating method. The procedures used for microbiology testing were based on method suitability performed at T0.
# [2] = Stability testing of syringed formulation prepared without preservative (Example 3); conditions: stability study
# Protocol: The formulations without a preservative were prepared following the method described in Example 1 except no preservative(s) was used.
# as §1, §2
# [3] = Potency after room temperature storage of syringe in nitrogen-flushed hermetically sealed pouch (Example 4); conditions: formulation of Table 4 (no preservative) in syringe, hermetically sealed pouch flushed with nitrogen
# Protocol: A preliminary evaluation of the feasibility of packaging syringes was performed. Hermetically sealed pouch containing a syringe with the exemplary formulation from Table 4 was flushed with nitrogen to reduce oxygen levels.
SMILES,Impurities of the active versus FDA/ICH guidelines ([1]; hydrochloride),"Impurities of the active versus FDA/ICH guidelines ([1]; listed as Bupivicaine, hydrochloride)","Impurities of the active versus limits of ICH guidelines, FDA and in-house SOP [2]",Potency (% label claim) after storage at room temperature for 90 days [3],Impurities of the active versus FDA/ICH guidelines [1]
"CCCCN1CCCCC1C(=O)Nc1c(C)cccc1C (stereo not shown) [Bupivacaine HCl, bupivacaine hydrochloride]",met FDA/ICH Guidelines,met the acceptable limits,met the acceptable limits,97.2%,–
"CNC[C@H](O)c1ccc(O)c(O)c1 [Epinephrine, epinephrine]",–,–,met the acceptable limits,104.2%,met FDA/ICH Guidelines; also recorded: met the acceptable limits
